{
  "source": "patent EP0272929B1",
  "about": "“Enkephalinase for therapeutic use” (GENENTECH, INC., priority 1986, dated 1988)",
  "key": {"[1]": {"system": "longitudinal ileal smooth muscle", "assay": "Contraction of longitudinal ileal smooth muscle", "type": "cell-based, ferrets", "conditions": "inhibitor 10⁻⁵ M", "text": "Using methods similar to those with ferret airway smooth muscle, described in Example 7, longitudinal ileal smooth muscle was examined. […] Leu-thiorphan (10⁻⁵ M) shifted the dose response curve to lower concentrations by 1 log unit."}, "[2]": {"system": "ferret tracheal smooth muscle", "assay": "Electrical field stimulation-induced contraction of isolated tracheal smooth muscle", "type": "cell-based", "conditions": "5 Hz; leu-thiorphan 10⁻⁵ M, 15 min", "description": "(§1) The tracheal rings were connected to strain gauges (Grass FT03) for continuous recording of isometric tension, and the rings were placed between two rectangular platinum electrodes (6 x 40 mm) for electrical field stimulation. The rings were initially stretched to a tension of 20 g for 30 seconds and were then allowed to equilibrate for 1 hour while resting tension was adjusted to 4 g (Skoogh, B-E. et al., J. Appl. Physiol. 53: 253-257 [1982]). During equilibration, the medium was changed every 15 minutes. […] Id.\nIncreasing concentrations of leu-thiorphan (10⁻¹¹ to 10⁻⁴ M) were added and the stimuli repeated to determine whether leu-thiorphan modulated electrical field stimulation-induced contractions. […] After determining control responses to electrical field stimulation (5 Hz), leu-thiorphan (10⁻⁵ M; 15 min) was added, the stimulus repeated, (DPro²,DTrp^7,9)substance P, the substance P antagonist (10⁻⁵ M; 15 min; Peninisula Labs) was added, and the stimulus was repeated.\nData were expressed as mean ± SE. For the dose-response curves to tachykinins the means between two groups at each concentration were analyzed by an unpaired t test. For the study of electrical field stimulation, responses were compared by one way analysis of variance and Newman-Keuls multiple range test. Significance was accepted at p<0.05."}, "[3]": {"system": "ferret tracheal smooth muscle", "assay": "Isometric tension of isolated tracheal smooth muscle rings (contraction by peptides, effect of inhibitors)", "type": "cell-based", "description": "Twenty-seven ferrets were anesthetized with pentobarbital sodium (45-60 mg/kg, i.p.), and the trachea were removed. Transverse rings (8 mm long) were cut from the trachea and mounted in glass chambers filled with 14 ml of Krebs-Henseleit solution of the following composition (in mMoles/L): NaCl 118, KCl 5.9, CaCl₂ 2.5, MgSO₄ 1.2, NaH₂PO4 1.2, NaHCO₃ 25.5, glucose 5.6, 0.1% bovine serum albumin, and penicillin-streptomycin (100 Units/ml). The soluiton was maintained at 37°C and was aerated continuously in a mixture of 95% O₂-5% CO₂, which produced a pH of 7.4. Six tracheal rings were studied concurrently.\nas §1\nThe responsiveness to substance P (using concentrations ranging from 10⁻⁸ M to 10⁻⁵ M) and to leu-thiorphan and cumulative dose-response curves to substance P (Peninsula Labs) were obtained. Each succeeding concentration of substance P was added after contraction reached a plateau. After completion of the first dose-response curve to substance P, leu-thiorphan (10⁻⁵ M, Squibb Pharmaceutical) was added to the organ bath. Following a 15 minute incubation, a second dose-response curve to substance P was obtained.\nThe N-terminal fragment, substance P₁₋₉ was studied because enkephalinase cleaves substance P between the 9 and 10 positions (Matsas, R. et al., Proc. Natl. Acad. Sci. [USA] 80: 3111-3115 [1983]), generating that fragment. (10⁻⁵ M Peninsula Labs). Experiments were also carried out with (DPro², DTrp^7,9)-substance P (10⁻⁵ M) (Peninsula Labs), a substance P antagonist (Hakanson, R. et al., Br. J. Pharmac. 77: 697-700 [1982]) by adding the antagonist after the response to substance P (10⁻⁶ M) and leu-thiorphan (10⁻⁵ M) reached a plateau.\nData were expressed as mean ± SE. For the dose-response curves to substance P, the means between two groups at each concentration were compared by a paired t test. For the studies of electrical field stimulation, responses were compared by one way analysis of variance and Newman-Keuls multiple range test. Significance was accepted at P < 0.05. […]"}, "enkephalinase": {"target": "T1, enkephalinase (Mustela putorius furo, UniProt M3XUG8)", "T1 sequence (M3XUG8 2-749)": "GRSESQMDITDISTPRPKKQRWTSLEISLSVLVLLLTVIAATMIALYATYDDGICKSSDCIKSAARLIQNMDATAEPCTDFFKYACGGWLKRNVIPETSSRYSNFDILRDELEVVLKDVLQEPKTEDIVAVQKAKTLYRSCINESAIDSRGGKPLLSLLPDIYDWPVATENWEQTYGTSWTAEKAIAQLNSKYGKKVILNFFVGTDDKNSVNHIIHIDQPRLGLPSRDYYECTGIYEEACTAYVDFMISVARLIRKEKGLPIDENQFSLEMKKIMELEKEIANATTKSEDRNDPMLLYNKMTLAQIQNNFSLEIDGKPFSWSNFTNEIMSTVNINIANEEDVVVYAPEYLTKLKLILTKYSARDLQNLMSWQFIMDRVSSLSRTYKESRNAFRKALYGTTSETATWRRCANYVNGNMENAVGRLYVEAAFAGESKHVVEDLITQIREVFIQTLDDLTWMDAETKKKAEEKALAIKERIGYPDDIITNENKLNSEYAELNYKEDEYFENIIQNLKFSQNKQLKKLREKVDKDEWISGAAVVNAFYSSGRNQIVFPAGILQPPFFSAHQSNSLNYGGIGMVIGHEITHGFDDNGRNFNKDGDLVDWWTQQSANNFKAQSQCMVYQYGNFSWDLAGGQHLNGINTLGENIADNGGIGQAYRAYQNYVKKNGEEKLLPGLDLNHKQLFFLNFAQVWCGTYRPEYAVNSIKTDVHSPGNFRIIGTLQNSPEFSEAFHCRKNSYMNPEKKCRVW", "assay": "Enkephalinase activity of tissue membrane fractions: cleavage of (3H-Tyr1,DAla2,Leu5)enkephalin, inhibition by inhibitors and substrates", "type": "biochemical, ferret", "description": "In this series of experiments, the tissue locations of enkephalinase were determined. Enkephalinase was purified from the ferret kidney to near homogeneity using published methods (Malfroy and Schwartz, Supra). Enkephalinase activity in membrane fractions derived from the vagus nerve, tracheal epithelium, submucosa, muscle, lungs, and kidneys of ferrets was determined. Ferrets were anesthetized, and the vagi, trachea, lungs, and kidneys removed. The tracheal epithelium, submucosa, and muscle were separated from each other by incubating the trachea in Ca⁺⁺-free medium for 15 minutes, after which time, the epithelium was easily removed. The muscle was then separated from the gland-containing submucosa. Each tissue was minced and then homogenized in 50mM HEPES buffer (pH 7.4) using a Polytron homogenizer.\nEnkephalinase activity was measured by determining the rates of cleavage of (³H-Tyr¹, DAla², Leu⁵)enkephalin (Research Products International) by membrane fractions or purified enkephalinase. Fifty µl of membrane fraction was incubated for 40 minutes at room temperature with 50 µl of buffer containing (³H-Tyr¹, DAla²,Leu⁵)enkephalin (20nM), after which time the reaction was quenched by adding 50 µl of 2N HCl.\nSeventy-five µl of this solution was applied to columns containing polystyrene beads (Poropak-Q); the characteristic metabolite, ³H-Tyr-DAla-Gly, eluted with water, and the radioactivity determined. The protein concentrations were determined by the Bradford procedure (Bradford, M.M. Analytical Biochem. 72:248-254 [1976]), and results of enkephalinase activities were expressed as fmoles substrate cleaved per min per mg protein."}, "[4]": {"target": "T2, purified rat kidney enkephalinase (Rattus norvegicus, UniProt P07861)", "T2 construct": "purified rat kidney enkephalinase (50 ng in 150 ul 50 mM, pH7.4 HEPES buffer containing 0.02% Triton X-100); from tissue; host or cells: rat kidney", "T2 sequence (P07861 1-750)": "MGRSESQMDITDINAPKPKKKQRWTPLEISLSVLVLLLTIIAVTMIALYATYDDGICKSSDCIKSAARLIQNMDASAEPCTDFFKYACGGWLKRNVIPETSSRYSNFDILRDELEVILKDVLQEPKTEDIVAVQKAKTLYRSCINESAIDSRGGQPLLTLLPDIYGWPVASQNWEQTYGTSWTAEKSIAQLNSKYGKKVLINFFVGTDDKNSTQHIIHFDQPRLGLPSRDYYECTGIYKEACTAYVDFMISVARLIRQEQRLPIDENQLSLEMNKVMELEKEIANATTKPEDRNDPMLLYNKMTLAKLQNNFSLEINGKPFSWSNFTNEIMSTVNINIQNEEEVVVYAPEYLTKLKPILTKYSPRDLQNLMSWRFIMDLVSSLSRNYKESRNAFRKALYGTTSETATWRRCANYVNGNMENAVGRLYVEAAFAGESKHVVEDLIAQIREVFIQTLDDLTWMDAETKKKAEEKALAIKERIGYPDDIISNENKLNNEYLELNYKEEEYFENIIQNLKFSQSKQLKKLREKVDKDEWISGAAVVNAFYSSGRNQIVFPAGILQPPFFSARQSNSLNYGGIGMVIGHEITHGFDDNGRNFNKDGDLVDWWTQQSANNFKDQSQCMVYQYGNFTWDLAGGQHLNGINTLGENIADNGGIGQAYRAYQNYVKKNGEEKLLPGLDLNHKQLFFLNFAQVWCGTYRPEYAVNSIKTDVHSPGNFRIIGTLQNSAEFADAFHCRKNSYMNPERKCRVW", "type": "biochemical", "conditions": "peptide 10⁻⁴M, 50 ng enzyme, 30 minutes at 37°C"}},
  "note": "“Also recorded” adds a separate entry of the source.",
  "data": [
    {"molecule": "CC(C)C[C@H](NC(=O)C(CS)Cc1ccccc1)C(=O)O", "note": "(some centres unmarked) [leu-thiorphan, Leucine-thiorphan]", "values": [
      {"measurement": "shift of the dose response curve to substance P to lower concentrations", "setting": "[1]", "result": 1, "unit": "log unit"},
      {"measurement": "response to electrical field stimulation, percent of control responses without added drugs", "setting": "[2]", "result": "118 ± 1.7", "unit": "%"},
      {"measurement": "effect alone on resting tension", "setting": "[3]; 10⁻⁵ M", "result": "no significant effect on resting tension"},
      {"measurement": "effect on resting tension", "setting": "[3]; concentrations up to 10⁻⁴ M", "result": "did not alter resting tension in any experiment"},
      {"measurement": "shift of the dose-response curve to neurokinin A to lower concentrations", "setting": "[3]; inhibitor 10⁻⁵ M", "result": "two-log units"},
      {"measurement": "shift of the dose-response curve to neurokinin B to lower concentrations", "setting": "[3]; inhibitor 10⁻⁵ M", "result": "three-log units"},
      {"measurement": "shift of the dose-response curve to substance P to lower concentrations", "setting": "[3]; inhibitor 10⁻⁵ M", "result": "approximately one log unit; also recorded: approximately one-log unit"},
      {"measurement": "Ki", "setting": "enkephalinase; Epthelium membrane fraction", "result": 8.7, "unit": "nM"},
      {"measurement": "Ki", "setting": "enkephalinase; Kidney", "result": 3.3, "unit": "nM"},
      {"measurement": "Ki", "setting": "enkephalinase; Lung membrane fraction", "result": 2.8, "unit": "nM"},
      {"measurement": "Ki", "setting": "enkephalinase; Muscle membrane fraction", "result": 2.1, "unit": "nM"},
      {"measurement": "Ki", "setting": "enkephalinase; Submucosa membrane fraction", "result": 2.8, "unit": "nM"},
      {"measurement": "Ki", "setting": "enkephalinase; Vagus/N. membrane fraction", "result": 2.1, "unit": "nM"}
    ]},
    {"molecule": "bombesin", "values": [
      {"measurement": "fraction of the peptide degraded / hydrolyzed", "setting": "[4]", "result": 80, "unit": "%"}
    ]}
  ]
}
